Measurements as given in article PMC6270232, “1,2,3-Triazole-Substituted Oleanolic Acid Derivatives: Synthesis and Antiproliferative Activity” (Molecules, 2013).

Legend:
[1] = tested on: promyelocytic leukemia (HL-60) cells; assay: Antiproliferative assay (MTT reduction), HL-60; assay type: cell-based; conditions: Homo sapiens, 72 h, HL-60 promyelocytic leukemia cells, 3 days treatment, read-out: IC50 ± SD, HL-60
Experimental: (§1) All human cell lines used in this work were purchased from the American Type Culture Collection (ATCC, Manasas, VA, USA). […] Promyelocytic leukemia HL-60 cells (CCL-240) were grown in suspension in RPM1 medium containing 1 mM sodium pyruvate and 2.0 g/L sodium bicarbonate. All media were supplemented with 10% heat-inactivated FBS, 100 IU/mL penicillin and 100 µg/mL streptomycin. […] For the antiproliferative assay, adherent cells were plated at a density of 5 × 10^4 cells/mL and HL-60 cells at 30 × 10^4 cells/mL. Cells were seeded in 96-well plates (100 µL/well). One day after seeding, cells were treated with medium containing the compounds at concentrations ranging from 0 up to 100 µM during 3 days. The compounds were dissolved in DMSO (1% final concentration) and complete medium. Untreated cells (medium containing 1% DMSO) were used as 100% viability controls. […] Each concentration was tested in sextuplicate and experiments were repeated 2 times. Cell viability was determined by means of the MTT reduction assay at the end of the incubation with the products.

[2] = tested on: lung cancer (SK-MES-1) cells; assay: Antiproliferative assay (MTT reduction), SK-MES-1; assay type: cell-based; conditions: Homo sapiens, 72 h, SK-MES-1 lung cancer cells, 3 days treatment, read-out: IC50 ± SD, SK-MES-1
Experimental: as §1

[3] = tested on: MRC-5, AGS, HL-60, SK-MES-1 and J82 cells; assay: Antiproliferative assay (MTT reduction), all cell lines together; assay type: cell-based, human; design: key to Antiproliferative activity in words, all cell lines: IC50 values > 100 µM were considered inactive; conditions: SK-MES-1, J82 and HL-60; for IC50: Homo sapiens, range over MRC-5, AGS; for Antiproliferative activity in words, all cell lines: MRC-5, AGS, up to 100 µM
Experimental: (§2) All human cell lines used in this work were purchased from the American Type Culture Collection (ATCC, Manasas, VA, USA). Normal lung MRC-5 fibroblasts (CCL-171), SK-MES-1 lung cancer cells (HTB-58) and J82 bladder carcinoma cells (HTB-1) were grown as monolayers in minimum essential Eagle medium (MEM) with Earles’s salts, 2 mM L-glutamine and 1.5 g/L sodium bicarbonate. Gastric adenocarcinoma AGS cells (CRL-1739) were grown as monolayers in Ham F-12 medium containing 1 mM L-glutamine and 1.5 g/L sodium bicarbonate. Promyelocytic leukemia HL-60 cells (CCL-240) were grown in suspension in RPM1 medium containing 1 mM sodium pyruvate and 2.0 g/L sodium bicarbonate. All media were supplemented with 10% heat-inactivated FBS, 100 IU/mL penicillin and 100 µg/mL streptomycin. Cells were grown in a humidified incubator with 5% CO2 in air at 37 °C. For the antiproliferative assay, adherent cells were plated at a density of 5 × 10^4 cells/mL and HL-60 cells at 30 × 10^4 cells/mL. Cells were seeded in 96-well plates (100 µL/well). One day after seeding, cells were treated with medium containing the compounds at concentrations ranging from 0 up to 100 µM during 3 days. The compounds were dissolved in DMSO (1% final concentration) and complete medium. Untreated cells (medium containing 1% DMSO) were used as 100% viability controls. […] Each concentration was tested in sextuplicate and experiments were repeated 2 times. Cell viability was determined by means of the MTT reduction assay at the end of the incubation with the products. The results were transformed to percentage of controls and the IC50 values were graphically obtained from the dose-response curves.

[4] = tested on: bladder carcinoma (J82) cells; assay: Antiproliferative assay (MTT reduction), J82; assay type: cell-based; conditions: Homo sapiens, 72 h, 3 days treatment, read-out: IC50 ± SD, J82
Experimental: as §2

[5] = tested on: normal lung fibroblasts (MRC-5); assay: Antiproliferative assay (MTT reduction), MRC-5; assay type: cell-based, human; design: key to Antiproliferative activity in words, MRC-5: IC50 values > 100 µM were considered inactive; conditions: for IC50: Homo sapiens, MRC5, 72 h, MRC-5 normal lung fibroblasts, 3 days treatment, MTT, read-out: IC50 ± SD, MRC-5
Experimental: as §1

[6] = tested on: gastric epithelial adenocarcinoma (AGS) cells; assay: Antiproliferative assay (MTT reduction), AGS; assay type: cell-based; conditions: Homo sapiens, 72 h, 3 days treatment, read-out: IC50 ± SD, AGS
Experimental: as §2

Compound	IC50 [1]	melting point	IC50 [2]	IC50 [4]	IC50 [6]	IC50 [3]	IC50 [5]	Antiproliferative activity in words, all cell lines [3]	Antiproliferative activity in words, MRC-5 ([5]; MRC-5 cells, up to 100 µM)
C#CCCC(=O)O[C@H]1CC[C@@]2(C)C(CC[C@]3(C)C2CC=C2[C@@H]4CC(C)(C)CC[C@]4(C(=O)O)CC[C@]23C)C1(C)C (stereo partly drawn) [Compound 1]	19.6 ± 0.1 µM	235 °C	22.4 ± 1.9 µM	23.1 ± 1.6 µM	19.1 ± 1 µM	19.6 to 23.1 µM	21.3 ± 0.9 µM	–	–
C#CCCC(=O)O[C@H]1CC[C@@]2(C)C(CC[C@]3(C)C2CC=C2[C@@H]4CC(C)(C)CC[C@]4(C(=O)OC)CC[C@]23C)C1(C)C (stereo partly drawn) [Compound 2]	> 100 µM	173 °C	> 100 µM	> 100 µM	> 100 µM	–	> 100 µM	inactive	–
C#CCCCC(=O)O[C@H]1CC[C@@]2(C)C(CC[C@]3(C)C2CC=C2[C@@H]4CC(C)(C)CC[C@]4(C(=O)O)CC[C@]23C)C1(C)C (stereo partly drawn) [Compound 3]	22.4 ± 0.1 µM	212 °C	23.4 ± 1.8 µM	56.2 ± 4.3 µM	22.1 ± 1.5 µM	14.1 to 56.2 µM	14.1 ± 1.2 µM	–	–
C#CCCCC(=O)O[C@H]1CC[C@@]2(C)C(CC[C@]3(C)C2CC=C2[C@@H]4CC(C)(C)CC[C@]4(C(=O)OC)CC[C@]23C)C1(C)C (stereo partly drawn) [Compound 4]	> 100 µM	176 °C	> 100 µM	> 100 µM	> 100 µM	–	> 100 µM	inactive	–
CC1(C)CC[C@]2(C(=O)O)CC[C@]3(C)C(=CCC4[C@@]5(C)CC[C@H](OC(=O)CCc6cn(-c7ccccc7)nn6)C(C)(C)C5CC[C@]43C)[C@@H]2C1 (stereo partly drawn) [Compound 5]	> 100 µM	–	> 100 µM	> 100 µM	> 100 µM	–	> 100 µM	–	–
COC(=O)[C@]12CCC(C)(C)C[C@H]1C1=CCC3[C@@]4(C)CC[C@H](OC(=O)CCc5cn(-c6ccccc6)nn5)C(C)(C)C4CC[C@@]3(C)[C@]1(C)CC2 (stereo partly drawn) [Compound 6]	> 100 µM	–	> 100 µM	> 100 µM	> 100 µM	–	> 100 µM	–	–
COc1ccc(-n2cc(CCC(=O)O[C@H]3CC[C@@]4(C)C(CC[C@]5(C)C4CC=C4[C@@H]6CC(C)(C)CC[C@]6(C(=O)O)CC[C@]45C)C3(C)C)nn2)cc1 (stereo partly drawn) [Compound 7]	> 100 µM	210 °C	> 100 µM	> 100 µM	95.1 ± 5.8 µM	–	> 100 µM	–	–
COC(=O)[C@]12CCC(C)(C)C[C@H]1C1=CCC3[C@@]4(C)CC[C@H](OC(=O)CCc5cn(-c6ccc(OC)cc6)nn5)C(C)(C)C4CC[C@@]3(C)[C@]1(C)CC2 (stereo partly drawn) [Compound 8]	> 100 µM	–	> 100 µM	> 100 µM	> 100 µM	–	> 100 µM	–	–
CC1(C)CC[C@]2(C(=O)O)CC[C@]3(C)C(=CCC4[C@@]5(C)CC[C@H](OC(=O)CCc6cn(Cc7ccc(Cl)cc7)nn6)C(C)(C)C5CC[C@]43C)[C@@H]2C1 (stereo partly drawn) [Compound 9]	35.8 ± 4.1 µM	184 °C	50.4 ± 3.5 µM	35.4 ± 2.8 µM	8.9 ± 0.4 µM	–	> 100 µM	–	–
COC(=O)[C@]12CCC(C)(C)C[C@H]1C1=CCC3[C@@]4(C)CC[C@H](OC(=O)CCc5cn(Cc6ccc(Cl)cc6)nn5)C(C)(C)C4CC[C@@]3(C)[C@]1(C)CC2 (stereo partly drawn) [Compound 10]	> 100 µM	–	> 100 µM	> 100 µM	> 100 µM	–	> 100 µM	activity was lost	–
COc1cc([C@@H]2c3cc4c(cc3[C@@H](O[C@@H]3O[C@@H]5CO[C@@H](C)O[C@H]5[C@H](O)[C@H]3O)[C@H]3COC(=O)[C@H]23)OCO4)cc(OC)c1O [Etoposide, reference compound]	–	–	–	3.49 ± 0.16 µM	0.58 ± 0.02 µM	–	–	–	–

Further lines, with some results ahead:

IC50 [1]	melting point	IC50 [2]	IC50 [4]	IC50 [6]	Compound	IC50 [3]	IC50 [5]	Antiproliferative activity in words, all cell lines [3]	Antiproliferative activity in words, MRC-5 ([5]; MRC-5 cells, up to 100 µM)
15.9 ± 1.5 µM	163 °C	21.4 ± 1.3 µM	47.1 ± 2.9 µM	10.8 ± 0.6 µM	Cc1ccc(S(=O)(=O)n2cc(CCC(=O)O[C@H]3CC[C@@]4(C)C(CC[C@]5(C)C4CC=C4[C@@H]6CC(C)(C)CC[C@]6(C(=O)O)CC[C@]45C)C3(C)C)nn2)cc1 (stereo partly drawn) [Compound 11]	10.8 to 47.1 µM	14.1 ± 0.8 µM	–	–
22.4 ± 1.8 µM	–	76.3 ± 5.1 µM	> 100 µM	63 ± 3.8 µM	COC(=O)[C@]12CCC(C)(C)C[C@H]1C1=CCC3[C@@]4(C)CC[C@H](OC(=O)CCc5cn(S(=O)(=O)c6ccc(C)cc6)nn5)C(C)(C)C4CC[C@@]3(C)[C@]1(C)CC2 (stereo partly drawn) [Compound 12]	–	76 ± 3.8 µM	–	–
18.1 ± 1.6 µM	170 °C	65.5 ± 4.4 µM	> 100 µM	31.6 ± 1.6 µM	CC1(C)CC[C@]2(C(=O)O)CC[C@]3(C)C(=CCC4[C@@]5(C)CC[C@H](OC(=O)CCc6cn(CSc7ccccc7)nn6)C(C)(C)C5CC[C@]43C)[C@@H]2C1 (stereo partly drawn) [Compound 13]	–	> 100 µM	–	inactive
> 100 µM	195 °C	> 100 µM	> 100 µM	> 100 µM	COC(=O)[C@]12CCC(C)(C)C[C@H]1C1=CCC3[C@@]4(C)CC[C@H](OC(=O)CCc5cn(CSc6ccccc6)nn5)C(C)(C)C4CC[C@@]3(C)[C@]1(C)CC2 (stereo partly drawn) [Compound 14]	–	> 100 µM	–	–
11.5 ± 1 µM	186 °C	11.9 ± 0.6 µM	14.3 ± 0.6 µM	22.2 ± 1.6 µM	Cc1ccc(S(=O)(=O)n2cc(CCCC(=O)O[C@H]3CC[C@@]4(C)C(CC[C@]5(C)C4CC=C4[C@@H]6CC(C)(C)CC[C@]6(C(=O)O)CC[C@]45C)C3(C)C)nn2)cc1 (stereo partly drawn) [Compound 15]	11.5 to 22.2 µM	17.1 ± 1 µM	–	–
84.2 ± 7.5 µM	–	> 100 µM	> 100 µM	> 100 µM	COC(=O)[C@]12CCC(C)(C)C[C@H]1C1=CCC3[C@@]4(C)CC[C@H](OC(=O)CCCc5cn(S(=O)(=O)c6ccc(C)cc6)nn5)C(C)(C)C4CC[C@@]3(C)[C@]1(C)CC2 (stereo partly drawn) [Compound 16]	–	> 100 µM	–	–
11.8 ± 0.9 µM	198 °C	61.8 ± 3.1 µM	> 100 µM	23.7 ± 1.4 µM	CC1(C)CC[C@]2(C(=O)O)CC[C@]3(C)C(=CCC4[C@@]5(C)CC[C@H](OC(=O)CCCc6cn(CSc7ccccc7)nn6)C(C)(C)C5CC[C@]43C)[C@@H]2C1 (stereo partly drawn) [Compound 17]	–	46.7 ± 2.4 µM	–	–
> 100 µM	–	> 100 µM	> 100 µM	> 100 µM	COC(=O)[C@]12CCC(C)(C)C[C@H]1C1=CCC3[C@@]4(C)CC[C@H](OC(=O)CCCc5cn(CSc6ccccc6)nn5)C(C)(C)C4CC[C@@]3(C)[C@]1(C)CC2 (stereo partly drawn) [Compound 18]	–	> 100 µM	–	–
